What is called IC50 is the point on the concentration scale where inhibition reaches its midpoint. A low value points to greater potency.

The target of one series is T1, OATP1B1 (Homo sapiens, UniProt Q9Y6L6).
T1 sequence (Q9Y6L6 1-691): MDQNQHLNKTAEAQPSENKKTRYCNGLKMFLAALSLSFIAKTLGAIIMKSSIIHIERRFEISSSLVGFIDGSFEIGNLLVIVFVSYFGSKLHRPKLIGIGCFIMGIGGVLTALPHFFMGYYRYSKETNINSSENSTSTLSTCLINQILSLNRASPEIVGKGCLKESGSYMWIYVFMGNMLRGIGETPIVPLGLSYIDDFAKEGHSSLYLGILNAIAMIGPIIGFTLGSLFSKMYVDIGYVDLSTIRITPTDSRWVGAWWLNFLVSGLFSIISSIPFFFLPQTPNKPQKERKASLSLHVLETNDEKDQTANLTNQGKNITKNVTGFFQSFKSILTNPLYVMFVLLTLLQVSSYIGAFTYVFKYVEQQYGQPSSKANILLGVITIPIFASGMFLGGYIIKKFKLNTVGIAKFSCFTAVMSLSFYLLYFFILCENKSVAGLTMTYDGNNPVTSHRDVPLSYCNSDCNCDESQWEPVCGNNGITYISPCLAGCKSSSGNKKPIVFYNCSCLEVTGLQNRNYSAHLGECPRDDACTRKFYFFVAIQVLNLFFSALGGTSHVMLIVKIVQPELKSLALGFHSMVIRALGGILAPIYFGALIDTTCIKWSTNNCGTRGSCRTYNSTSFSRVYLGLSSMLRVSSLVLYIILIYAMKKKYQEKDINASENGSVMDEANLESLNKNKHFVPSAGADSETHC
The series is described as follows: Pyranine uptake inhibition in A431 cells overexpressing OATP1B1. The settings on record: for activity on OATP1B1 and OATP1B3 (in words): statement covers both OATP1B1 and OATP1B3. On the procedure:
IC50 values were calculated based on transport inhibition measurements (see below) by Hill1 fit, using the Origin Pro8.6 software (OriginLab Corporation, Northampton, MA, US).
(§1) 20 mM stocks in DMSO were stored for further usage at −20 °C. A431 cells overexpressing OATPs, OATP1B1, OATP1B3, or OATP2B1 or mock transfected controls were generated previously.[60] A431 cells were maintained in DMEM medium (Thermo Fischer Scientific, Waltham, MA, US) supplemented with 10% fetal bovine serum, 2 mM L-glutamine, 100 units/mL penicillin, and 100 μg/mL streptomycin at 37 °C with 5% CO2. […] The uptake of pyranine was measured on microplates based on the method developed by us previously.[60],[61]
Briefly, 1 day prior to the uptake measurement cells (8 × 10^4 cells/well in 200 μL DMEM) were seeded on 96-well plates. […] OATP-dependent transport was calculated by extracting fluorescence measured in mock transfected cells. Transport activity was calculated based on the fluorescence signal in the absence (100%) of the tested compounds. Experiments were repeated at least three times on cells deriving from different passages.
(§2) IC50 values were calculated by Hill1 fit, using the (OriginLab Corporation, Northampton, MA, US).

A further series deals with T2, OATP1B3 (Homo sapiens, UniProt Q9NPD5).
T2 sequence (Q9NPD5 1-702): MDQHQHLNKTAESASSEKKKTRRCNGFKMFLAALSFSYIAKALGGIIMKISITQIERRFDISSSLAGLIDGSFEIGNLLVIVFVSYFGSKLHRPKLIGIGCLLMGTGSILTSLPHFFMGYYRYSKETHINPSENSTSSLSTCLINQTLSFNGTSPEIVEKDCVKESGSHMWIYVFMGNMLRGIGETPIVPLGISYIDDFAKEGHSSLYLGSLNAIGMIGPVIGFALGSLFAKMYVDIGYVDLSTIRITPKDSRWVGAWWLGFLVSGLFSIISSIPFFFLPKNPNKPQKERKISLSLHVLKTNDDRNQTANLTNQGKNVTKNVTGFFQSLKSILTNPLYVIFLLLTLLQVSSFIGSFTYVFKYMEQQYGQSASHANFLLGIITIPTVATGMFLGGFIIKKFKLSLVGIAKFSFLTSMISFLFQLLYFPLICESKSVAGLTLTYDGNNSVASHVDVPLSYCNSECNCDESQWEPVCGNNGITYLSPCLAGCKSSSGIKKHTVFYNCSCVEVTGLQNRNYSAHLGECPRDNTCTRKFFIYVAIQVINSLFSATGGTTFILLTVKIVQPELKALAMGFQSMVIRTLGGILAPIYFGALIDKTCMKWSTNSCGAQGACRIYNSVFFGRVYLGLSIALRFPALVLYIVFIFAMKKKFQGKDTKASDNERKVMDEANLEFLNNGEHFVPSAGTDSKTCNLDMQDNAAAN
As to the kind of experiment: Pyranine uptake inhibition in A431 cells overexpressing OATP1B3. On the procedure:
(§3) Compounds with measured bioactivities (Km, IC50, Ki, and EC50 bioactivity end points or percentage inhibition values) on OATP1B1 (n = 440 compounds), OATP1B3 (n = 936 compounds), or OATP2B1 (n = 173 compounds) were collected from the open domain by utilizing a KNIME workflow, which collects data from five independent data sources as described in Tuerkova et al.[15] […] IC50 values were calculated based on transport inhibition measurements (see below) by Hill1 fit, using the Origin Pro8.6 software (OriginLab Corporation, Northampton, MA, US).
as §1
(§4) Briefly, 1 day prior to the uptake measurement cells (8 × 10^4 cells/well in 200 μL DMEM) were seeded on 96-well plates. On the following day, the medium was removed, and the cells were washed three times with 200 μL of phosphate-buffered saline (PBS, pH 7.4) and preincubated with 50 μL of uptake buffer (125 mM NaCl, 4.8 mM KCl, 1.2 mM CaCl2, 1.2 mM KH2PO4, 12 mM MgSO4, 25 mM MES (2-(N-morpholino)ethanesulfonic acid, and 5.6 mM glucose, pH 5.5) with or without increasing concentrations of the tested compounds. The reaction was started by the addition of 50 μL of uptake buffer containing pyranine in a final concentration of 10 μM (OATP1B1) or 20 μM (OATP1B3 and OATP2B1). Cells were incubated with the dye at 37 °C for 15 min (OATP1B1 and OATP2B1) or 30 min (OATP1B3), after which the supernatant was removed, and the cells were washed three times with 200 μL of ice-cold PBS. Fluorescence (in 200 μL of PBS/well) was determined in an Enspire plate reader (PerkinElmer, Waltham, MA, Ex/Em = 403/517 nm). OATP-dependent transport was calculated by extracting fluorescence measured in mock transfected cells. Transport activity was calculated based on the fluorescence signal in the absence (100%) of the tested compounds. Experiments were repeated at least three times on cells deriving from different passages.
as §2

For the next series, the target named is T3, OATP2B1 (Homo sapiens, UniProt O94956).
T3 sequence (O94956 1-709): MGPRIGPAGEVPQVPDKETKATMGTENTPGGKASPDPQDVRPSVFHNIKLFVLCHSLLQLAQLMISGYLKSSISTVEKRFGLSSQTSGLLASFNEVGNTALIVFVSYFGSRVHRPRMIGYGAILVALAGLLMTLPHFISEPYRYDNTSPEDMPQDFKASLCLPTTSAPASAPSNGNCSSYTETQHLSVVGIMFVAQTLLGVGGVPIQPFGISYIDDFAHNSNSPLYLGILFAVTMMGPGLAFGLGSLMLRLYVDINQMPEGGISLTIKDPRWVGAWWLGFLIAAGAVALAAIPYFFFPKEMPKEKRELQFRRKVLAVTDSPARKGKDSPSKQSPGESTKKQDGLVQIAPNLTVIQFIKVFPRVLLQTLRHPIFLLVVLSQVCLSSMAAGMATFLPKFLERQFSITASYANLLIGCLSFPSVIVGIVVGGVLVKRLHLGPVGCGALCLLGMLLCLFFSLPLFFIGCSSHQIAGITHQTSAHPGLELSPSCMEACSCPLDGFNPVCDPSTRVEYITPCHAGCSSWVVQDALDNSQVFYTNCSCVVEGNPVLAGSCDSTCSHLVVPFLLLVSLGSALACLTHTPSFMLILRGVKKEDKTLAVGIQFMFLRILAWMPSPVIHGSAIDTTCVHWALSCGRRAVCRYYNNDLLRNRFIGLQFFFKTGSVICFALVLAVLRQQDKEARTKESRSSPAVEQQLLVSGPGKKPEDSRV
The series is described as follows: Pyranine uptake inhibition in A431 cells overexpressing OATP2B1. The following applies: for selectivity for OATP2B1 (in words): vs OATP1B1 and OATP1B3; for fold decrease in activity compared with compound 11: 3-hydroxy and 3-methoxy analogs vs 3-benzyloxy compound 11. On the procedure: as §3, §1, §4, §2

Structures are written as SMILES.

Consider `C[C@@]12CCC3c4ccc(O)c(I)c4CCC3C1CCC2=O` (some centres unmarked) [Compound 8], for which the IC50 is 9.28 µM at OATP1B1, 8.28 µM at OATP1B3 and 3.58 µM at OATP2B1. Besides, the “activity on OATP1B1 and OATP1B3 (in words)” value (“activity … (in words)” for short) at OATP1B1 is “weak to borderline inhibitory activity”.

`CCOP(=O)(OCC)c1c(O)ccc2c1CCC1C2CC[C@@]2(C)C(=O)CCC12` (some centres unmarked) [Compound 14]: the results for the IC50 at OATP1B1, against OATP1B3 and at OATP2B1 were greater than 50 µM, greater than 50 µM and 10.2 µM, respectively.

Consider `C[C@@]12CCC3c4cc(Br)c(O)cc4CCC3C1CCC2=O` (some centres unmarked) [Compound 5], for which the IC50 against OATP1B1 is greater than 50 µM; on OATP1B3, greater than 50 µM; against OATP2B1, 1.19 µM. The “selectivity for OATP2B1 (in words)” value on OATP2B1 is “selective”.

For `C[C@@]12CCC3c4cc(Cl)c(O)cc4CCC3C1CCC2=O` (some centres unmarked) [Compound 9], the figures for the IC50 on OATP1B1, against OATP1B3 and at OATP2B1 were greater than 50 µM, greater than 50 µM and 0.9 µM, respectively. Besides, at OATP2B1, the “selectivity for OATP2B1 (in words)” value is reported as “selective”.

Turning to `C[C@@]12CCC3c4ccc(O)cc4CCC3C1CCC2=O` (stereo partly drawn) [Compound 1, 13α-estrone], the IC50 at OATP1B3 and against OATP2B1 was greater than 50 µM throughout.

As to `C[C@@]12CCC3c4ccc(O)c(Cl)c4CCC3C1CCC2=O` (some centres unmarked) [Compound 10], the IC50 is 25 µM against OATP1B1, greater than 50 µM against OATP1B3 and 10.5 µM on OATP2B1. The compound further registered a half-inhibitory concentration (IC50) at 15 min against OATP2B1 (human, pH 5.5) of 10.5 µM.

Consider `C[C@@]12CCC3c4cc(I)c(O)cc4CCC3C1CCC2=O` (some centres unmarked) [Compound 7], for which the IC50 against OATP1B1 turned out to be 22.5 µM; at OATP1B3, 18.2 µM; on OATP2B1 it was 0.6 µM. In addition, on OATP2B1, the “selectivity for OATP2B1 (in words)” value is listed as “selective”.

As to `C[C@@]12CCC3c4ccc(OCc5ccccc5)cc4CCC3C1CCC2=O` (some centres unmarked) [Compound 3], the IC50 on OATP1B1 was greater than 50 µM; on OATP1B3 it was greater than 50 µM; against OATP2B1, 7.17 µM.

`CCOP(=O)(OCC)c1cc2c(cc1OCc1ccccc1)CCC1C2CC[C@@]2(C)C(=O)CCC12` (some centres unmarked) [Compound 11]: the IC50 at OATP1B1 amounted to 0.76 µM; against OATP1B3 it was 2.18 µM; against OATP2B1 it was 0.18 µM. In addition, the “activity … (in words)” value at OATP1B1 was “highly active”.

For `CCOP(=O)(OCC)c1c(OCc2ccccc2)ccc2c1CCC1C2CC[C@@]2(C)C(=O)CCC12` (some centres unmarked) [Compound 12], the results for the IC50 against OATP1B1, on OATP1B3 and against OATP2B1 were 3.22 µM, 2.49 µM and 0.75 µM, respectively. Besides, the “activity … (in words)” value at OATP1B1 is listed as “highly active”.

Turning to `COc1ccc2c(c1)CCC1C2CC[C@@]2(C)C(=O)CCC12` (some centres unmarked) [Compound 2], the IC50 at OATP1B1 is greater than 50 µM; at OATP1B3, greater than 50 µM; against OATP2B1, 5.41 µM.

As for `CCOP(=O)(OCC)c1c(OC)ccc2c1CCC1C2CC[C@@]2(C)C(=O)CCC12` (some centres unmarked) [Compound 16], the IC50 against OATP1B1 stood at 32.4 µM; against OATP1B3 it was 11.8 µM; against OATP2B1, 2.74 µM. The “activity … (in words)” value at OATP1B1 was “rather inactive”.

For `CCOP(=O)(OCC)c1cc2c(cc1O)CCC1C2CC[C@@]2(C)C(=O)CCC12` (some centres unmarked) [Compound 13], the IC50 against OATP1B1 turned out to be 3.79 µM; on OATP1B3, 5.24 µM; on OATP2B1 it was 3.18 µM. Besides, the “activity … (in words)” value on OATP1B1 is “moderate activity”. Further, the “fold decrease in activity compared with compound 11” value at OATP2B1 (OATP2B1) is “approximately 17 fold”.

For `C[C@@]12CCC3c4ccc(O)c(Br)c4CCC3C1CCC2=O` (some centres unmarked) [Compound 6], the IC50 was found to be 4.07 µM on OATP1B1, 9.2 µM at OATP1B3 and 2.97 µM against OATP2B1. Moreover, on OATP1B1, the “activity … (in words)” value is recorded as “weak to borderline inhibitory activity”.

Turning to `CCOP(=O)(OCC)c1cc2c(cc1OC)CCC1C2CC[C@@]2(C)C(=O)CCC12` (some centres unmarked) [Compound 15], the IC50 against OATP1B1 was 10.1 µM; on OATP1B3 it was 9.5 µM; on OATP2B1, 2.96 µM. In addition, the “activity … (in words)” value at OATP1B1 was “rather inactive”. Moreover, the “fold decrease in activity compared with compound 11” value on OATP2B1 (OATP2B1) is “approximately 17 fold”.

For `COc1cc2c(cc1Br)C1CC[C@@]3(C)C(=O)CCC3C1CC2` (some centres unmarked) [Compound 4], the figures for the IC50 at OATP1B1, against OATP1B3 and on OATP2B1 were greater than 50 µM, greater than 50 µM and 8.39 µM, respectively. Moreover, at OATP2B1 (OATP2B1), the “fold decrease in affinity compared to hydroxyl derivative (compound 5)” value is 7 fold. Also, on OATP2B1, the “selectivity for OATP2B1 (in words)” value is listed as “selective”.

These data come from article PMC8243326, “Data-Driven Ensemble Docking to Map Molecular Interactions of Steroid Analogs with Hepatic Organic Anion Transporting Polypeptides” (Journal of Chemical Information and Modeling, 2021).
